Tested on: diarrhea-predominant IBS subjects
Test: Study S241.3.011: weekly diary questions on adequate relief
Format: in vivo, human
Conditions: for Overall responder rate, adequate relief of IBS symptoms / Overall responder rate, adequate relief of abdominal pain/discomfort / Overall responder rate, adequate relief of abnormal bowel habits: observed case
Description: Study S241.3.011 was a Phase III, double-blind, placebo-controlled, randomized, multinational study to investigate the safety and efficacy of 2 mg TID of cilansetron for a period of 12 weeks followed by a rerandomized, placebo-controlled four-week treatment period, in diarrhea-predominant IBS subjects. The study was conducted in six countries including the US. A total of 2115 subjects consented to participate, and 770 subjects were randomized. A total of 746 subjects were analyzed for efficacy and 755 subjects were analyzed for safety. Diagnosis and main criteria for inclusion were IBS subjects satisfying the Rome I criteria (1992); the diarrhea predominant sub-population of the Rome II criteria; and a minimum abdominal pain/discomfort, stool frequency and consistency determined during the run-in period. Subjects were treated with cilansetron 2 mg tablets given orally TID or matching placebo tablets given orally TID for 12 weeks followed by a rerandomized, placebo-controlled four-week treatment period.
The primary efficacy parameter was the number of months that a subject was a responder for IBS symptoms (abdominal pain, abdominal discomfort, abnormal bowel habits) over the 12-week treatment period. A responder for a month (monthly responder) was defined as a subject who answered the weekly question with “yes” at least twice for that month. The two main secondary efficacy parameters were the monthly responder rates based on the “adequate relief” questions regarding abdominal pain/discomfort and abnormal bowel habits during the 12-week treatment period. The overall response rate and responder rate for the weekly diary questions on adequate relief at each month and all months, the adequate relief rate, the number of subjects with adequate relief by week, daily diary questions, IBS-QOL scores, and the interruption of activities were also assessed. Safety was evaluated by physical examination, ECG, vital signs, laboratory evaluations, concomitant medications, and AEs.
Subjects who were initially randomized to the cilansetron 2 mg TID group and rerandomized to placebo, will be referred to as the C/P treatment group; subjects initially randomized to the placebo group and rerandomized to placebo will be referred to as the P/P treatment group; the P/C and C/C treatment group nomenclature follow the same principle. Of the 591 subjects who completed the three-month treatment period, 576 subjects were rerandomized and thus divided into the following treatment groups: 150 subjects in the C/C treatment group, 140 subjects in the C/P treatment group, 136 subjects in the P/C treatment group, and 150 subjects in the P/P treatment group. Of the 576 subjects rerandomized, a higher percentage of subjects in the C/C treatment group (99%) completed the study compared with the C/P (95%), P/C (93%), and the P/P (95%) treatment groups.
Studies S24 1.3.OO6, S24 1.3.0 1 1, and S24 1.3.009 used the following efficacy measurements: • The subjects answered the following three questions with “yes” or “no” using a phone diary at the end of each week: • a) During the last week, did you experience adequate relief of your IBS symptoms, such as abdominal pain, abdominal discomfort, abnormal bowel habits? • b) During the last week, did you experience adequate relief of your abdominal pain and/or discomfort? • c) During the last week, did you experience adequate relief of your abnormal bowel habits? • The subjects rated the following symptoms using the phone diary at the end of each day: • abdominal pain/discomfort (five-point scale); • stool consistency (seven-point Bristol Stool Scale); • stool frequency (number of bowel movements each day); • urgency (five-point scale); • straining (yes or no); • feeling of incomplete defecation (yes or no); • bloating or feeling of abdominal distension (five-point scale). • In Studies S241 A006 and S241.3.009, subjects completed the IBS-QOL Survey at Baseline (Day 1) and at the end of treatment. […]

[1] = Female subjects, three-month treatment period, monthly LOCF, ITT, 2 mg TID
[2] = Female subjects, three-month treatment period, ITT, 2 mg TID
[3] = Male subjects, three-month treatment period, monthly LOCF, ITT, 2 mg TID
[4] = Male subjects, three-month treatment period, ITT, 2 mg TID
[5] = RR Group C/C (cilansetron 2 mg TID, rerandomized to cilansetron)
[6] = RR Group C/P (cilansetron 2 mg TID, rerandomized to placebo)

Cc1nccn1C[C@H]1CCc2c(c3cccc4c3n2CCC4)C1=O [Cilansetron, (R)-(−)-4,5,6,8,9,10-hexahydro-10-[(2-methyl-1H-imidazol-1-yl)methyl]-11H-pyrido-[3,2,1-jk]-carbazol-11-one]
Number of months a subject was a responder: Three months (Abnormal bowel habits) [1]: 101 (39) n (%)
Number of months a subject was a responder: Three months (IBS symptoms) [1]: 96 (37) n (%)
Number of months a subject was a responder: Two months (Abdominal pain/discomfort) [1]: 57 (22) n (%)
Number of months a subject was a responder: Two months (Abnormal bowel habits) [1]: 48 (18) n (%)
Number of months a subject was a responder: Two months (IBS symptoms) [1]: 52 (20) n (%)
Number of months a subject was a responder: Zero months (Abdominal pain/discomfort) [1]: 74 (28) n (%)
Number of months a subject was a responder: Zero months (Abnormal bowel habits) [1]: 79 (30) n (%)
Number of months a subject was a responder: Zero months (IBS symptoms) [1]: 79 (30) n (%)
Overall responder rate, adequate relief of IBS symptoms [2]: 138 (53) n (%)
Overall responder rate, adequate relief of abdominal pain/discomfort [2]: 151 (58) n (%)
Overall responder rate, adequate relief of abnormal bowel habits [2]: 140 (53) n (%)
Number of months a subject was a responder: One month (Abdominal pain/discomfort) [3]: 15 (13) n (%)
Number of months a subject was a responder: One month (Abnormal bowel habits) [3]: 16 (14) n (%)
Number of months a subject was a responder: One month (IBS symptoms) [3]: 19 (17) n (%)
Number of months a subject was a responder: Three months (Abdominal pain/discomfort) [3]: 58 (50) n (%)
Number of months a subject was a responder: Three months (Abnormal bowel habits) [3]: 48 (42) n (%)
Number of months a subject was a responder: Three months (IBS symptoms) [3]: 52 (45) n (%)
Number of months a subject was a responder: Two months (Abdominal pain/discomfort) [3]: 15 (13) n (%)
Number of months a subject was a responder: Two months (Abnormal bowel habits) [3]: 18 (16) n (%)
Number of months a subject was a responder: Two months (IBS symptoms) [3]: 18 (16) n (%)
Number of months a subject was a responder: Zero months (Abdominal pain/discomfort) [3]: 27 (23) n (%)
Number of months a subject was a responder: Zero months (Abnormal bowel habits) [3]: 33 (29) n (%)
Number of months a subject was a responder: Zero months (IBS symptoms) [3]: 26 (23) n (%)
Overall responder rate, adequate relief of IBS symptoms [4]: 68 (59) n (%)
Overall responder rate, adequate relief of abdominal pain/discomfort [4]: 70 (61) n (%)
Overall responder rate, adequate relief of abnormal bowel habits [4]: 63 (55) n (%)
Responder rate, abdominal pain/discomfort (Peru): 69%
Responder rate, abnormal bowel habits (Peru): 75%
Δ Month 4 vs Month 3, responder rate, Adequate Relief of Abdominal Pain/Discomfort (RR Group C/C): 0%
Δ Month 4 vs Month 3, responder rate, Adequate Relief of Abnormal Bowel Habits (RR Group C/C): +2%
Δ Month 4 vs Month 3, responder rate, Adequate Relief of IBS Symptoms (RR Group C/C): +3%
Monthly responder rate, Adequate Relief of Abdominal Pain/Discomfort, Month 3 [5]: 70%
Monthly responder rate, Adequate Relief of Abdominal Pain/Discomfort, Month 4 [5]: 70%
Monthly responder rate, Adequate Relief of Abnormal Bowel Habits, Month 3 [5]: 68%
Monthly responder rate, Adequate Relief of Abnormal Bowel Habits, Month 4 [5]: 70%
Monthly responder rate, Adequate Relief of IBS Symptoms, Month 3 [5]: 66%
Monthly responder rate, Adequate Relief of IBS Symptoms, Month 4 [5]: 69%
Δ Month 4 vs Month 3, responder rate, Adequate Relief of Abdominal Pain/Discomfort (RR Group C/P): −16%
Δ Month 4 vs Month 3, responder rate, Adequate Relief of Abnormal Bowel Habits (RR Group C/P): −18%
Δ Month 4 vs Month 3, responder rate, Adequate Relief of IBS Symptoms (RR Group C/P): −22%
Monthly responder rate, Adequate Relief of Abdominal Pain/Discomfort, Month 3 [6]: 66%
Monthly responder rate, Adequate Relief of Abdominal Pain/Discomfort, Month 4 [6]: 50%
Monthly responder rate, Adequate Relief of Abnormal Bowel Habits, Month 3 [6]: 60%
Monthly responder rate, Adequate Relief of Abnormal Bowel Habits, Month 4 [6]: 42%
Monthly responder rate, Adequate Relief of IBS Symptoms, Month 3 [6]: 61%
Monthly responder rate, Adequate Relief of IBS Symptoms, Month 4 [6]: 39%
Overall responder rate, IBS symptoms (entire four months, C/C group): 66%
Overall responder rate, abdominal pain/discomfort (entire four months, C/C group): 70%
Overall responder rate, abnormal bowel habits (entire four months, C/C group): 69%
Overall responder rate, IBS symptoms (females): 53%
Overall responder rate, abdominal pain/discomfort (females): 58%
Overall responder rate, abnormal bowel habits (females): 53%
Overall responder rate, IBS symptoms (males): 59%
Overall responder rate, abdominal pain/discomfort (males): 61%
Overall responder rate, abnormal bowel habits (males): 55%
Overall responder rate, IBS symptoms (non-Caucasians): 66%
Overall responder rate, abdominal pain/discomfort (non-Caucasians): 66%
Overall responder rate, abnormal bowel habits (non-Caucasians): 70%
